Experimental findings from publication PMC5366925, “Novel 1, 4-dihydropyridines for L-type calcium channel as antagonists for cadmium toxicity” (Scientific Reports, 2017) are described below.

SMILES strings stand for the structures. ≈ marks a conversion by molar mass, not a printed value.

For series [1], the system named is A7r5 cells (containing L-type Ca2+ channels). In words: Intracellular Ca2+ measurement (Fluo-4 NW), CaCl2/KCl-induced increase. Type of series: cell-based, rat. Conditions: for IC50: Rattus norvegicus, A7r5 cells, 1.5 mM CaCl2 and 50 mM KCl, mean ± SD, unit printed only in abstract, not in Table 2, read-out: Calcium overload-preventing activity (IC50), A7r5; for fold higher activity in A7r5 cells than in SH-SY5Y cells: A7r5 vs SH-SY5Y IC50. The protocol: (§1) The A7r5 (rat aorta smooth muscle cells) and SH-SY5Y (human neuroblastoma cell line) were obtained from the National Centre for Cell Science, Pune, India. The cells were grown at 37.5 °C in a humidified atmosphere with 5% CO2/95% air in Dulbecco’s modified Eagle medium (DMEM), restraining 2 mM of glutamine and supplemented with 10% fetal bovine serum. Once a week the cells were passaged using 0.25% trypsin, 0.53 mM EDTA (Ethylene diamine tetra acetic acid) solution and grown in […] plastic culture flasks until confluence.
(§2) In the experiment, SH-SY5Y cells were plated in 96-well plates at a density of 30,000 cells per well and incubated for 24 h. A7r5 cells were seeded into 96-well plates at a density of 10,000 cells per well and incubated for 72 h. the intracellular [Ca^2+]i concentration changes were studied using the Fluo-4 NW Calcium Assay Kit (Invitrogen, Sweden), as per the manufacturer’s instructions. Both SH-SY5Y and A7r5 cells were loaded with […] for 45 min. Then, the cells were pre-incubated in the dark for 15 min with the tested compounds at concentrations from […]. The compounds were dissolved in distilled water. Application of carbachol (100 nM) to Fura-4 loaded SH-SY5Y cells was used to stimulate changes in the intracellular [Ca^2+]i concentration, whereas A7r5 cells were treated with 1.5 mM CaCl2 and KCl (50 mM) for 5 min to induce an increase in the [Ca^2+] ion concentration. The intracellular [Ca^2+] ion concentration was measured using the fluorescence spectrophotometer’s (Thermo Ascient, Hyderabad) settings appropriate for an excitation at 494 nm and an emission at 516 nm. Amlodipine was used as the positive control. IC50 values as mean ± SD were calculated using Graph Pad Prism 5.0 software.

The subject of series [2] is SH-SY5Y cells (containing L- and N-type Ca2+ channels). In words: Intracellular Ca2+ measurement (Fluo-4 NW), carbachol-induced increase. The class given is cell-based. Conditions: Homo sapiens, carbachol 100 nM, mean ± SD, unit printed only in abstract, not in Table 2, read-out: Calcium overload-preventing activity (IC50), SH-SY5Y. The protocol:
as §1, §2

The subject of series [3] is A7r5 cells. In words: Cadmium cytotoxicity study (LDH release). Particulars: for fold decrease in cell lethality (ratio of LC50 vs CdCl2 alone): then CdCl2 for 4 h. The class given is cell-based, rat. The protocol: The A7r5 cell line was obtained from National Center for Cell Sciences, Pune, India. The cells were grown in Dulbecco’s Modified Eagles Medium (DMEM) supplemented with 5% fetal bovine serum at 37 °C in an atmosphere of 90% air/10% CO2. For determinations of cell viability, A7r5 cells were removed from stock flasks by mild digestion with trypsin-EDTA solution and the stock cultures were developed in 25 cm^2 culture flasks and all trials were done in 96 micro titer plates. After plating, the cells were allowed to grow to confluence for 7–10 days before use.
The rat aorta smooth muscle A7r5 cells received one of the four treatments following overnight incubation. The first group received CdCl2 at 1, 10, 20, 30, 40, 50 μM prepared in complete culture for 4 h incubation. The second group received pretreatment with 200 μM AD for 1 h followed by the addition of 1, 10, 20, 30, 40, 50 μM CdCl2 for 4 h incubation. The third group received pretreatment with 200 μM compound 5a for 1 h followed by the addition of 1, 10, 20, 30, 40, 50 μM CdCl2 for 4 h incubation. The fourth group received pretreatment with 200 μM compound 5a for 1 h followed by the addition of 1, 10, 20, 30, 40, 50 μM CdCl2 for 4 h incubation. The CdCl2 different concentrations used in this test were chosen based on preliminary studies to identify concentrations which ranged from producing no effects to cytolethality. A short term exposure (4 h) was chosen to evaluate the effects of metallothionein induction. The cell viability was assessed by measurement of (Lactate Dehydrogenase) LDH released into the medium. LDH release was expressed as a percent of the maximum after lysis of cells with TritonX-100.

For series [4], the system named is mitochondrial functioning. In words: Effect on mitochondrial functioning. Conditions: at concentrations close to those demonstrating L-type calcium channel blocking activity.

On to `CCOC(=O)C1=C(COCCNS(=O)(=O)c2ccc(Cl)c([N+](=O)[O-])c2)NC=C(C(=O)OC)C1c1ccccc1Cl` (centres unmarked) [5c], for which the results for the concentration for half-maximal inhibition (IC50) in series [1] and in series [2] were 0.43 ± 0.52 µg/mL (≈ 0.7 µM) and 15 ± 0.53 µg/mL (≈ 24.4 µM), respectively.

Consider `CCOC(=O)NCCOCC1=C(C(=O)OCC)C(c2ccccc2Cl)C(C(=O)OC)=CN1` (centres unmarked) [3d], for which the results for the IC50 in series [1] and in series [2] were 4.25 ± 0.25 µg/mL (≈ 9.1 µM) and 14 ± 0.39 µg/mL (≈ 30 µM), respectively.

For the compound `CCOC(=O)C1=C(COCCNS(=O)(=O)C(F)(F)F)NC=C(C(=O)OC)C1c1ccccc1Cl` (centres unmarked) [5e], in series [1], the “fold higher activity in A7r5 cells than in SH-SY5Y cells” value is “at least 10 fold” and the IC50 was found to be 0.25 ± 0.63 µg/mL (≈ 0.474 µM). Further, in series [2], the IC50 amounted to 10 ± 0.18 µg/mL (≈ 19 µM). The “fold decrease in cell lethality (ratio of LC50 vs CdCl2 alone)” value in series [3] (200 μM for 1 h pretreatment) came to 2.3 fold. Besides, the “effect on mitochondrial functioning” value in series [4] is “did not affect mitochondrial functioning”.

Consider `CCOC(=O)C1=C(COCCNS(=O)(=O)c2ccc([N+](=O)[O-])cc2)NC=C(C(=O)OC)C1c1ccccc1Cl` (centres unmarked) [5a], for which, in series [1], the “fold higher activity in A7r5 cells than in SH-SY5Y cells” value is “at least 10 fold” and the IC50 turned out to be 0.18 ± 0.02 µg/mL (≈ 0.31 µM). Moreover, the IC50 in series [2] was determined as 8 ± 0.23 µg/mL (≈ 13.8 µM). Further, the “fold decrease in cell lethality (ratio of LC50 vs CdCl2 alone)” value in series [3] (200 μM for 1 h pretreatment) is on record as 2.5 fold. In addition, the “effect on mitochondrial functioning” value in series [4] is given as “did not affect mitochondrial functioning”.

`CCOC(=O)C1=C(COCCNS(=O)(=O)c2ccc(F)cc2)NC=C(C(=O)OC)C1c1ccccc1Cl` (centres unmarked) [5d]: the IC50 in series [1] was found to be 0.59 ± 0.61 µg/mL (≈ 1.07 µM); in series [2], 21 ± 0.49 µg/mL (≈ 38 µM).

For `CCOC(=O)C1=C(COCCN)NC(C)=C(C(=O)OC)C1c1ccccc1Cl` (centres unmarked) [Amlodipine, reference compound], the IC50 in series [1] was 0.45 ± 0.52 µg/mL (≈ 1.1 µM); in series [2], 11 ± 0.61 µg/mL (≈ 26.9 µM). In addition, the “loss of cell viability ablated by pretreatment” value in series [3] (200 μM for 1 h pretreatment, 20 μM CdCl2) was 75%. Moreover, the “fold decrease in cell lethality (ratio of LC50 vs CdCl2 alone)” value in series [3] (200 μM for 1 h pretreatment) amounted to 2.0 fold. Further, the “effect on LDH leakage” value in series [3] (1 h pretreatment with 200 μM, compound alone) is “did not affect LDH leakage”.

As for `CCOC(=O)C1=C(COCCNC(=O)OCC(C)C)NC=C(C(=O)OC)C1c1ccccc1Cl` (centres unmarked) [3e], the IC50 in series [1] was 8.35 ± 0.52 µg/mL (≈ 16.9 µM); in series [2] it was 40 ± 0.43 µg/mL (≈ 80.8 µM).

As for `[Cl][Cd][Cl]` [CdCl2], the CC50 in series [3] (4 h exposure, CdCl2 alone, read-out: LC50 (CdCl2 induced cell death)) was 30.2 ± 0.82 µM.

For the compound `CCOC(=O)C1=C(COCCNS(=O)(=O)c2ccc(Br)cc2)NC=C(C(=O)OC)C1c1ccccc1Cl` (centres unmarked) [5b], the half-inhibitory concentration (IC50) in series [1] was 0.52 ± 0.48 µg/mL (≈ 0.847 µM); in series [2] it was 20 ± 0.52 µg/mL (≈ 32.6 µM).
